Assay results published in patent US20260209272A1 (priority 2022, published 2026).
Ends that are not written are not given here.

Key:
[1] = tested on: Phytophthora infestans zoospores
Phytophthora infestans [2] = format: in vivo
Phytophthora infestans [3] = format: in vivo; remark: listed apart in the source
detached potato leaves = detached potato leaves treated with peptide plus water, no inoculum; 9 = clean leaves

Row | Substance | activity in the presence of other agrochemical active ingredients ([1]; FIG. 9 legend) | zoospore germination, peptide expressed in E. coli ([1]; Peptide V1 expressed in E. coli) | additive or synergistic effects with chemical fungicides ([1]; Peptide V1 with either Mancozeb or Fungonil (Chlorothalonil), germination assays) | protection among concentrations tested with and without LI-700 (Phytophthora infestans [2]; large plants, 400 μM peptide) | severity of symptoms compared with non-treated control group, combination (Phytophthora infestans [2]; plant assays, low dose Peptide V1 (25 μM) combined with low dose of Mancozeb) | severity of symptoms compared with non-treated control group (Phytophthora infestans [2]; plant assays, low dose alone (Peptide V1 25 μM; low dose of Mancozeb)) | disease reduction (Phytophthora infestans [2]; whole plant assays, 400 μM peptide concentration) | protection against infection (in words), experiment repeated one week later (Phytophthora infestans [3]; 400 uM, detached potato leaves) | average score (1-9 scale of late blight infection) (Phytophthora infestans [3]; 6 days after Phytophthora infection, 50 sporangia/ul final, 4 drops of 10 ul per leaflet, 20 C, peptides 400 uM final, Mancozeb product diluted 1:1000, 9 = no symptoms, water positive control 6.56) | late blight lesions, peptide expressed in E. coli (Phytophthora infestans [3]; detached leaf assay, Peptide V1 expressed in E. coli) | protection (in words), further repeat, first time (Phytophthora infestans [3]; detached potato leaves) | protection (in words), further repeat, second time (Phytophthora infestans [3]; detached potato leaves) | overall conclusion on efficacy (Phytophthora infestans [3]; over all detached leaf experiments) | score (1-9 scale), negative control without Phytophthora infestans inoculation (detached potato leaves)
1 | RITAQIRL [Peptide V1] | retains its activity | completely inhibited zoospore germination | did not indicate any evidence of additive or synergistic effects | best protection | approximately the same | approximately the same | approximately 60% | almost as good at reducing infection | 8.37 | it allowed the development of minor late blight lesions, it is noteworthy that these lesions did not progress | some protection | excellent protection | consistently works well | –
2 | RNTAQIP [Peptide V2, RNTAQIP] | – | – | – | – | – | – | – | – | – | – | – | – | – | 8.67
